From patent US10457678B2, “Substituted pyrrolo[2,3-b]pyridines as inhibitors of cellular necroptosis” (Institut National de la Sante et de la Recherche Medicale …, priority 2015, dated 2019)
Entries after “also recorded” stand apart in the source; their conditions may differ. Read-outs that look alike come from different tables or passages of the source.

Columns and labels:
[1] = test system: L929sAhFas; test: Necroptosis induced by FasL + zVAD-fmk in L929sAhFas cells; assay type: cell-based; conditions: Mus musculus
Experimental: (§1) Besides, the EC50 of compound 7, compound 10 and necrostatin-1 (Nec-1) were determined in mouse or human cellular models of necroptosis induced by FasL+zVAD-fmk (a pan-caspase inhibitor), TRAIL+zVAD-fmk+Bp (Birinapant, a Smac mimetics) or TNF, and by using two cytotoxic assays (MTS Cell Proliferation assay or intracellular ATP level).

[2] = test system: Jurkat FADD-deficient I 2.1 cell line; test: Cell-based screening: necroptosis induced by TNF-α in Jurkat FADD-deficient cells, MTS viability assay; design: species or system human; conditions: for EC50: Homo sapiens, Jurkat FADD-deficient cells, TNF-α 10 ng/ml, 24 hours, MTS viability assay; for inhibition of necroptosis induced by TNF-α: human T lymphocyte, Jurkat FADD deficient cell line
From the text: (§2) TNF-α can induce necroptosis in Jurkat cells (human T lymphocytes) when FADD was deleted. This model was used to screen various libraries of chemical compounds for characterization of new inhibitors of cellular necroptosis. Details on this cell-based assay can be found in Miao and Degterev (Methods Mol. Biol. 2009, 559, 79-93). The Jurkat FADD-deficient I 2.1 cell line used was purchased from ATCC and was maintained in RPMI 1640 medium (Gibco) containing Glutamax and 15% fetal calf serum (Life Technology). Necroptosis was induced by addition of 10 ng/ml of human recombinant TNF-α (Life Technology). Necrostatin-1 (Nec-1, Enzo Life Sciences) was used as model necroptosis inhibitor. Cells were maintained in 75 cm^2 flask and passed every 2 or 3 days. Chemical collections analysed were formatted in 96-well plates with 80 molecules per plates at 10 mM in 100% DMSO. For each collection plate, 2 cell plates were seeded (one necroptosis-induced with TNF-α and the other without TNF-α). Cells were seeded at 20000 cells/well, in 40 μl of medium, in a 96-well clear, flat bottom plate (CytoOne, Starlab) before treatment. Then, 40 μl of medium with or without TNF-α at 25 ng/ml were added to all wells in the corresponding plate. Immediately after TNF-α addition, 20 μl of diluted compound at 50 μM were added to the plates. Final concentration of each chemical compound was 10 μM at 0.1% DMSO. Four positives (Nec-1 at 10 μM final) and four negative (DMSO) controls were used in each plate to validate the assay. Cells were incubated at 37° C., 5% CO2 for 24 hours before performing MTS viability assay, described hereafter. Compounds were diluted before to treat cells. Liquid handling was performed using the Nimbus Microlab liquid handler (Hamilton Robotics) under microbiological safety workbench. The 10 mM compounds were diluted at 50 μM directly in cell medium.

[3] = test system: Jurkat Fadd−/−; test: Necroptosis induced by TNF in Jurkat Fadd−/− cells (Table 1); assay type: cell-based; conditions: Homo sapiens
From the text: as §2, §1

[4] = test system: HT29; test: Necroptosis induced by TRAIL + zVAD-fmk + Bp (Birinapant) in HT29 cells; assay type: cell-based, human; conditions: for anti-necroptotic effect by inducer (in words, summary of Table 1): TNF-, TRAIL- or FasL-induced necroptosis in mouse or human cellular models; for EC50: Homo sapiens, HT-29, HT29, TRAIL + Zvad + Bp
Experimental: as §1

[5] = biological target: T1, Human RIPK1 full length GST-tagged (Homo sapiens, UniProt Q13546); test: RIPK1 autophosphorylation assay; assay type: biochemical; conditions: [γ-32P] ATP, radiographic film, FIG. 5
T1 construct: Human RIPK1 full length GST-tagged was baculovirally expressed in Sf9 cells; GST; made in house; host or cells: Sf9 insect cells (baculovirus, Bac-to-Bac expression system, Invitrogen)
T1 sequence (Q13546 1-671): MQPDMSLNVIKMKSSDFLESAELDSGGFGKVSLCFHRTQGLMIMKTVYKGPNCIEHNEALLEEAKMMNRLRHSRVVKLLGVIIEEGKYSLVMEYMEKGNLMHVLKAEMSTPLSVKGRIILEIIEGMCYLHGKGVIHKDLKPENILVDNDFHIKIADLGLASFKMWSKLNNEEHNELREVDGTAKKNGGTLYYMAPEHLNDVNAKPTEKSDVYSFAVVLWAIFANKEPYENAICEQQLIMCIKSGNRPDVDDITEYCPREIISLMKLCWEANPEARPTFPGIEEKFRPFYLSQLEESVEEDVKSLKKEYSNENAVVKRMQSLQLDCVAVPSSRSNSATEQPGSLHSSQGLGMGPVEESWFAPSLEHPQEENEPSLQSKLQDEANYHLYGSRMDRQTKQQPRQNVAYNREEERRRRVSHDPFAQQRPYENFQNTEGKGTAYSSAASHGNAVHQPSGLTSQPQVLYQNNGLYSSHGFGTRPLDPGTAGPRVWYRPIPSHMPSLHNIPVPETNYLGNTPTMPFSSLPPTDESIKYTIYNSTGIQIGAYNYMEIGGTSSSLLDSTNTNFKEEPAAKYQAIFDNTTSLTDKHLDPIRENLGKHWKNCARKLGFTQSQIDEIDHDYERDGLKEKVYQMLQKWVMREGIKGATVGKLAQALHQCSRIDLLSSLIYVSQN
Experimental: RIPK1 Autophosphorylation Assay: Human RIPK1 full length GST-tagged was baculovirally expressed in Sf9 cells according to manufacturer's instructions (Bac-to-Bac expression system, Invitrogen) and purified using gluthation-sepharose beads (GE Healthcare). The elution was made in 50 mM Tris-HCl, pH 8.0 buffer supplemented with 30 mM reduced gluthatione (Sigma). The protocol used to detect the enzymatic activity is adapted from Miao and Degterev (Methods Mol. Biol. 2009, 559, 79-93). Kinase reaction was initiated mixing 5 μl of eluted RIPK1, 5 μl of 3× kinase reaction buffer (5 mM MOPS pH 7.2, 2.5 mM β-glycerophosphate, 4 mM MgCl2, 2.5 mM MnCl2, 1 mM EGTA, 0.4 mM EDTA, 50 μg/ml BSA, 0.05 mM DTT), 2 μl H2O and 3 μl of the tested molecule. The mixture was kept on ice for 10 minutes. During the incubation, the ATP solution was prepared by mixing 5 μl of 3× kinase reaction buffer, 4 μl H2O, 6 μl cold ATP at 150 μM and 2 μCi of [γ-^32P] ATP. Add the ATP solution and the tested inhibitor to the kinase and incubate for 30 minutes at 30° C. To stop the enzymatic reaction, 5 μl of loading buffer were added and solution was heated for 3 minutes at 95° C. 25 μl of each reaction were loaded per well in pre-cast NuPage 12% Bis-Tris gel (Life Technology). Autophosphorylated RIPK1 band was visualized on radiographic film after 6 h exposition at −80° C.

[6] = MTS Cell Proliferation assay, read-out: EC50, MTS
[7] = intracellular ATP level, read-out: EC50, ATP level

| Structure (SMILES) | EC50 [1, 6] | EC50 [1, 7] | EC50 [2] | inhibition of necroptosis induced by TNF-α [2] | EC50 [3, 6] | EC50 [3, 7] | anti-necroptotic effect by inducer (in words, summary of Table 1) [4] | EC50 [4, 6] | EC50 [4, 7] | inhibition of RIPK1 autophosphorylation (in words) [5] |
| --- | --- | --- | --- | --- | --- | --- | --- | --- | --- | --- |
| CCOc1ccc(-c2cc3cccn(C(=O)N(CC)CC)c-3n2)cc1 [Compound 7, 2-(4-ethoxyphenyl)-N,N-diethyl-7H-pyrrolo[2,3-b]pyridine-7-carboxamide] | 10 µM | 5 µM | 7 µM | dose-dependent inhibition | 10 µM | 9.3 µM | only inhibits TNF- or FasL-induced necroptosis | – | – | – |
| CCOc1ccc(-c2cc3cccnc3n2C(C)=O)cc1 [Compound 10, 1-(2-(4-ethoxyphenyl)-1H-pyrrolo[2,3-b]pyridin-1-yl)ethan-1-one] | 3.5 µM | 5 µM | 1.7 µM | dose-dependent inhibition | 4 µM | 2.6 µM | inhibits TNF-, TRAIL- or FasL-induced necroptosis | 4 µM | 5 µM | dose-dependent inhibition; also recorded: inhibits, in a dose-dependent fashion |
| CCOc1ccc(-c2cc3cccnc3n2C(=O)OC(C)(C)C)cc1 [Compound 17, tert-butyl 2-(4-ethoxyphenyl)-1H-pyrrolo[2,3-b]pyridine-1-carboxylate] | – | – | 3 µM | dose-dependent inhibition | – | – | – | – | – | – |
| CCOc1ccc(-c2cc3cccn(C(=O)OCc4ccccc4)c-3n2)cc1 [Compound 21, benzyl 2-(4-ethoxyphenyl)-7H-pyrrolo[2,3-b]pyridine-7-carboxylate] | – | – | 5 µM | dose-dependent inhibition | – | – | – | – | – | – |
| CCOc1ccc(-c2cc3c(Cl)ccnc3n2C(=O)OC(C)(C)C)cc1 [Compound 26, tert-butyl 4-chloro-2-(4-ethoxyphenyl)-1H-pyrrolo[2,3-b]pyridine-1-carboxylate] | – | – | 2.4 µM | dose-dependent inhibition | – | – | – | – | – | – |
| CCOc1ccc(-c2cc3cccnc3n2C(=O)OCC(Cl)(Cl)Cl)cc1 [Compound 32, 2,2,2-trichloroethyl 2-(4-ethoxyphenyl)-1H-pyrrolo[2,3-b]pyridine-1-carboxylate] | – | – | 2.5 µM | dose-dependent inhibition | – | – | – | – | – | – |
| CCOc1ccc(-c2cc3cccnc3n2C(=O)N2CCN(S(C)(=O)=O)C2=O)cc1 [Compound 33, 1-(2-(4-ethoxyphenyl)-1H-pyrrolo[2,3-b]pyridine-1-carbonyl)-3-(methylsulfonyl) imidazolidin-2-one] | – | – | 1 µM | dose-dependent inhibition | – | – | – | – | – | – |
| CCOc1ccc(-c2cc3cccn(C(=O)N(C(C)C)C(C)C)c-3n2)cc1 [Compound 34, 2-(4-ethoxyphenyl)-N,N-diisopropyl-7H-pyrrolo[2,3-b]pyridine-7-carboxamide] | – | – | 2 µM | dose-dependent inhibition | – | – | – | – | – | – |
| CCOc1ccc(-c2cc3cccn(C(=O)N4CCCC4)c-3n2)cc1 [Compound 35, (2-(4-ethoxyphenyl)-7H-pyrrolo[2,3-b]pyridin-7-yl)(pyrrolidin-1-yl)methanone] | – | – | 3.5 µM | dose-dependent inhibition | – | – | – | – | – | – |
| CCOc1ccc(-c2cc3cccn(C(=O)N4CCN(C)CC4)c-3n2)cc1 [Compound 36, (2-(4-ethoxyphenyl)-7H-pyrrolo[2,3-b]pyridin-7-yl) (4-methylpiperazin-1-yl)methanone] | – | – | 1.05 µM | dose-dependent inhibition | – | – | – | – | – | – |
| CN1C(=O)C(Cc2c[nH]c3ccccc23)NC1=S (stereo not drawn) [Nec-1, necrostatin-1, reference compound] | 10 µM | 10 µM | – | – | 1.3 µM | 1.3 µM | – | 1.2 µM | 2 µM | – |
